{
  "source": "patent US5750540A",
  "about": "“1,4-di-substituted piperidine derivatives” (Banyu Pharmaceutical Co., Ltd., priority 1995, dated 1998)",
  "key": {"[1]": {"target": "T1, M2 receptors (right atrium) (Rattus norvegicus, UniProt P10980)", "T1 construct": "the right atrium was excised; from tissue; host or cells: isolated rat right atrium", "T1 sequence (P10980 1-466)": "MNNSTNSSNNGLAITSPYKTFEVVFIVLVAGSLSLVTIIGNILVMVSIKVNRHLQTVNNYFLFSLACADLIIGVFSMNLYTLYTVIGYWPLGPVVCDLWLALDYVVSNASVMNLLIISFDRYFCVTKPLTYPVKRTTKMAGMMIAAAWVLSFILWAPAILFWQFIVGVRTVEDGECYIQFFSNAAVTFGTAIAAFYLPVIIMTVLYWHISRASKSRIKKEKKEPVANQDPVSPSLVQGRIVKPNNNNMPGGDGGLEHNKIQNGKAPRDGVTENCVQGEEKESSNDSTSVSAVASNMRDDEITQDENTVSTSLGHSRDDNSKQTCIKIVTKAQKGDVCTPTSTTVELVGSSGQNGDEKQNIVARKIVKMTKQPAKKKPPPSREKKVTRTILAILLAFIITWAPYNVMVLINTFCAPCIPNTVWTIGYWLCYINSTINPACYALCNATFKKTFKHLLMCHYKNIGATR", "assay": "Antagonism against M2 receptors in an isolated rat right atrium", "conditions": "in vitro, agonist carbachol", "protocol": "2) Tests for antagonism against the M2 receptors in an isolated rat right atrium\nThese tests were performed according to an ordinary method. A male SD strain rat (weighing 300-500 g) was killed by exsanguination, and the right atrium was excised. This preparation was isometrically suspended in a Magnus tube filled with 20 ml of Krebs-Henseleit nutrient solution (gassed with 95% O2 -5% CO2 and kept at 32° C.) with an initial tension of 0.5 g. The heart rate was recorded with a heart rate counter. After the preparation was equilibrated for 30 minutes, carbachol (10^-9 to 10^-6 M) was cumulatively administered from the lowermost concentration in three-fold increasing doses. Thus, a decrease in heart rate was measured to obtain a dose-response curve for the control experiment. After the preparation was washed with fresh solution to restore the heart rate, a test compound was administered thereto. Ten minutes later, carbachol was cumulatively administered again. Responses to carbachol were expressed as percentages based on the heart rate before administration of carbachol. The antagonistic potency (KB value) of the test compound (i.e., a compound in accordance with the present invention) was determined from the degree of shift of the dose-response curve obtained by treatment with the test compound."}, "muscarinic M1 receptors": {"target": "T2, muscarinic M1 receptors (Rattus norvegicus, UniProt P08482)", "T2 construct": "a mixture of a membrane specimen from the cerebral cortex; from tissue; host or cells: rat cerebral cortex membranes (SD rat)", "T2 sequence (P08482 1-460)": "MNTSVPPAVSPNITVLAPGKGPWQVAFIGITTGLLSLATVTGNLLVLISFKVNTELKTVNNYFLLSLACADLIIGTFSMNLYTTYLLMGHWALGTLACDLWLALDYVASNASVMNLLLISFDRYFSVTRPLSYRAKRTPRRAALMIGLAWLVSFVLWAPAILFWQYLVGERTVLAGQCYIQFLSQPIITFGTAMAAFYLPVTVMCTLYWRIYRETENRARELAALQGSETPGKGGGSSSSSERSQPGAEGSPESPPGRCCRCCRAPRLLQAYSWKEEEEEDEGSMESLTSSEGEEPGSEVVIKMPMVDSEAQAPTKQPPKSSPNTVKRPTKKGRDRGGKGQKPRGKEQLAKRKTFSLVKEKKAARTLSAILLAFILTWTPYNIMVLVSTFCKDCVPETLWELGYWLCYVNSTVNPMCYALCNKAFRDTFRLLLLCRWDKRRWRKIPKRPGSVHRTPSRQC", "assay": "Inhibition of binding to muscarinic M1 receptors ([3H]-telenzepine, cerebral cortex membrane)", "protocol": "In these tests, their inhibitory and antagonistic effects were expressed in terms of the dissociation constant (Ki) of each test compound which was calculated from its concentration (IC50 ) causing a 50% inhibition of the binding of a labeled ligand to muscarinic receptors. As the labeled ligand, [^3 H]-telenzepine was used for the muscarinic M1 receptors and [^3 H]-N-methylscopolamine for the muscarinic M2 and M3 receptors.\nA male SD strain rat (purchased from Nippon Charles River Co., Ltd.), weighing about 250-350 g, was sacrificed, and the cerebral cortex, heart and lacrimal glands were excised. Using a Polytron (setting 5), each organ was homogenized in 5 volumes of an ice-cold buffer solution (pH 7.4) containing 50 mM tris-HCl, 5 mM magnesium chloride, 1 mM trisodium ethylenediaminetetraacetate and 20% sucrose. The resulting homogenate was centrifuged at 3,000×g at 4° C. for 15 minutes, and the supernatant was filtered through gauze and ultracentrifuged at 100,000×g at 4° C. for 45 minutes. The resulting precipitate was suspended in an ice-cold buffer solution (pH 7.4) containing 50 mM tris-HCl and 5 mM magnesium chloride (hereinafter referred briefly to as \"tris buffer\") and ultracentrifuged at 100,000×g at 4° C. for 45 minutes. The resulting precipitate was suspended in tris buffer so as to give a concentration of 50 mg/ml and stored at -80° C. till use. The membrane specimens so prepared were thawed prior to use and submitted to tests for the inhibition of binding to muscarinic receptors.\n2) Tests for the inhibition of binding to the muscarinic M1 receptors\nThese tests were performed according to a modification of the method of Hargreaves et al. [Br. J. Pharmacol., Vol. 107, pp. 494-501 (1992)]. Specifically, a mixture of a membrane specimen from the cerebral cortex, 1 nM [^3 H]-telenzepine (85 Ci/mmol; manufactured by New England Nuclear) and a test compound in 0.5 ml of tris buffer was incubated at room temperature (about 20°-25° C.) for 120 minutes. After the addition of 0.5 ml of ice-cold tris buffer, the mixture was filtered by suction through a glass filter (Packard Unifilter Plate GF/C). Then, the filter was washed four times with 1 ml portions of ice-cold tris buffer and dried at 50° C. for an hour. After the addition of a scintillator (Packard Microscinti 0), the radioactivity of [^3 H]-telenzepine adsorbed to the filter was measured with a microplate scintillation counter (Packard Topcount). The nonspecific binding of [^3 H]-telenzepine to receptors was determined by the addition of […] pirenzepine. According to the method of Cheng and Prusoff [Biochem. Pharmacol., Vol. 22, pp. 3099-3108 (1973)], the affinity of the test compound (i.e., a compound in accordance with the present invention) for the muscarinic M1 receptors was determined in terms of its dissociation constant (Ki) calculated from the concentration (IC50) of the test compound which was required to cause a 50% inhibition of the binding of [^3 H]-telenzepine used as the labeled ligand."}},
  "data": [
    {"smiles": "CC(C)=CCCN1CCC(NC(=O)C(O)(c2ccccc2)C2CCC2)CC1", "note": "(centres unmarked) [Example 1, N-[1-(4-methyl-3-pentenyl)-piperidin-4-yl]-2-cyclobutyl-2-hydroxy-2-phenylacetamide]", "values": [
      {"measurement": "Kb", "setting": "[1]", "result": 1500, "unit": "nM"},
      {"measurement": "Ki", "setting": "muscarinic M1 receptors", "result": 45, "unit": "nM"}
    ]}
  ]
}
